Data published in the NIST ThermoML archive (doi:10.1016/j.jct.2005.10.006).
Numbers after ± are expanded uncertainties.

Assay: xn = mol fraction of the nth substance listed
Settings: Fluid (supercritical or subcritical phases), Spherical resonator

N#N [nitrogen] + C
Settings | speed of sound [m/s]
250 K, 30044 kPa, x1 = 0.1 | 707.81 ± 1.1
250 K, 30196 kPa, x1 = 0.2 | 665.27 ± 1.1
275 K, 105.1 kPa, x1 = 0.2 | 405.31 ± 0.67
275 K, 249.6 kPa, x1 = 0.2 | 404.93 ± 0.67
275 K, 498.5 kPa, x1 = 0.1 | 416.53 ± 0.68
275 K, 498.5 kPa, x1 = 0.2 | 404.25 ± 0.67
275 K, 998 kPa, x1 = 0.2 | 402.93 ± 0.66
275 K, 998.1 kPa, x1 = 0.1 | 414.81 ± 0.68
275 K, 1999 kPa, x1 = 0.1 | 411.66 ± 0.68
275 K, 2001 kPa, x1 = 0.2 | 400.6 ± 0.66
275 K, 3010 kPa, x1 = 0.2 | 398.72 ± 0.66
275 K, 3012 kPa, x1 = 0.1 | 408.95 ± 0.67
275 K, 4014 kPa, x1 = 0.2 | 397.39 ± 0.65
275 K, 4024 kPa, x1 = 0.1 | 406.81 ± 0.67
275 K, 5030 kPa, x1 = 0.2 | 396.69 ± 0.65
275 K, 6045 kPa, x1 = 0.2 | 396.72 ± 0.65
275 K, 6053 kPa, x1 = 0.1 | 404.7 ± 0.67
275 K, 7052 kPa, x1 = 0.2 | 397.57 ± 0.65
275 K, 8005 kPa, x1 = 0.1 | 406.18 ± 0.67
275 K, 8072 kPa, x1 = 0.2 | 399.34 ± 0.66
275 K, 9089 kPa, x1 = 0.2 | 402.1 ± 0.66
275 K, 9957 kPa, x1 = 0.1 | 411.99 ± 0.68
275 K, 10115 kPa, x1 = 0.2 | 405.96 ± 0.67
275 K, 11147 kPa, x1 = 0.2 | 410.97 ± 0.68
275 K, 12035 kPa, x1 = 0.1 | 423.61 ± 0.7
275 K, 12036 kPa, x1 = 0.1 | 423.62 ± 0.7
275 K, 12160 kPa, x1 = 0.2 | 416.99 ± 0.68
275 K, 13171 kPa, x1 = 0.2 | 424.08 ± 0.7
275 K, 14013 kPa, x1 = 0.2 | 430.77 ± 0.71
275 K, 14111 kPa, x1 = 0.1 | 440.93 ± 0.72
275 K, 15003 kPa, x1 = 0.2 | 439.49 ± 0.72
275 K, 15988 kPa, x1 = 0.1 | 460.87 ± 0.75
275 K, 15990 kPa, x1 = 0.2 | 449 ± 0.74
275 K, 17009 kPa, x1 = 0.2 | 459.59 ± 0.75
275 K, 17997 kPa, x1 = 0.2 | 470.47 ± 0.77
275 K, 18033 kPa, x1 = 0.1 | 486.14 ± 0.79
275 K, 19084 kPa, x1 = 0.2 | 483.04 ± 0.79
275 K, 19680 kPa, x1 = 0.2 | 490.13 ± 0.8
275 K, 20228 kPa, x1 = 0.1 | 515.84 ± 0.84
275 K, 24821 kPa, x1 = 0.1 | 581.11 ± 0.95
275 K, 29257 kPa, x1 = 0.1 | 642.82 ± 1
275 K, 29972 kPa, x1 = 0.2 | 619.3 ± 1
300 K, 199.5 kPa, x1 = 0.1 | 434.92 ± 0.71
300 K, 248.5 kPa, x1 = 0.2 | 421.88 ± 0.69
300 K, 480.1 kPa, x1 = 0.5422 | 386.4 ± 0.64
300 K, 498 kPa, x1 = 0.1 | 434.24 ± 0.71
300 K, 498.6 kPa, x1 = 0.2 | 421.47 ± 0.69
300 K, 707.5 kPa, x1 = 0.5422 | 386.45 ± 0.64
300 K, 996.8 kPa, x1 = 0.1 | 433.15 ± 0.71
300 K, 1191 kPa, x1 = 0.5422 | 386.59 ± 0.64
300 K, 1998 kPa, x1 = 0.1 | 431.25 ± 0.71
300 K, 1999 kPa, x1 = 0.2 | 419.47 ± 0.69
300 K, 2344 kPa, x1 = 0.5422 | 387.23 ± 0.64
300 K, 3003 kPa, x1 = 0.1 | 429.75 ± 0.7
300 K, 4015 kPa, x1 = 0.2 | 418.25 ± 0.69
300 K, 4016 kPa, x1 = 0.1 | 428.73 ± 0.7
300 K, 4632 kPa, x1 = 0.5422 | 389.87 ± 0.64
300 K, 5019 kPa, x1 = 0.1 | 428.26 ± 0.7
300 K, 6030 kPa, x1 = 0.1 | 428.38 ± 0.7
300 K, 6037 kPa, x1 = 0.2 | 419.02 ± 0.69
300 K, 6838 kPa, x1 = 0.5422 | 394.27 ± 0.65
300 K, 7046 kPa, x1 = 0.1 | 429.17 ± 0.7
300 K, 8068 kPa, x1 = 0.2 | 422.18 ± 0.69
300 K, 8086 kPa, x1 = 0.1 | 430.75 ± 0.71
300 K, 8994 kPa, x1 = 0.5422 | 400.43 ± 0.66
300 K, 10104 kPa, x1 = 0.2 | 428.03 ± 0.7
300 K, 10134 kPa, x1 = 0.1 | 436.25 ± 0.71
300 K, 11262 kPa, x1 = 0.5422 | 408.61 ± 0.67
300 K, 11983 kPa, x1 = 0.2 | 435.96 ± 0.71
300 K, 12193 kPa, x1 = 0.1 | 445.26 ± 0.73
300 K, 14023 kPa, x1 = 0.2 | 447.31 ± 0.73
300 K, 14237 kPa, x1 = 0.1 | 457.66 ± 0.75
300 K, 16022 kPa, x1 = 0.2 | 461.03 ± 0.75
300 K, 16322 kPa, x1 = 0.1 | 473.66 ± 0.77
300 K, 17969 kPa, x1 = 0.2 | 476.54 ± 0.78
300 K, 18326 kPa, x1 = 0.1 | 491.78 ± 0.8
300 K, 19736 kPa, x1 = 0.2 | 492.16 ± 0.8
300 K, 19924 kPa, x1 = 0.1 | 507.75 ± 0.83
300 K, 24934 kPa, x1 = 0.1 | 563.32 ± 0.92
300 K, 30250 kPa, x1 = 0.1 | 625.49 ± 1
350 K, 202.3 kPa, x1 = 0.1 | 466.26 ± 0.76
350 K, 248.7 kPa, x1 = 0.2 | 452.58 ± 0.74
350 K, 498.6 kPa, x1 = 0.2 | 452.54 ± 0.74
350 K, 502 kPa, x1 = 0.1 | 466.1 ± 0.76
350 K, 552.3 kPa, x1 = 0.5422 | 415.67 ± 0.68
350 K, 814.8 kPa, x1 = 0.5422 | 415.97 ± 0.68
350 K, 1001 kPa, x1 = 0.1 | 465.83 ± 0.76
350 K, 1374 kPa, x1 = 0.5422 | 416.67 ± 0.68
350 K, 1999 kPa, x1 = 0.2 | 452.66 ± 0.74
350 K, 2001 kPa, x1 = 0.1 | 465.52 ± 0.76
350 K, 2717 kPa, x1 = 0.5422 | 418.62 ± 0.69
350 K, 3007 kPa, x1 = 0.1 | 465.52 ± 0.76
350 K, 4009 kPa, x1 = 0.2 | 453.86 ± 0.74
350 K, 4012 kPa, x1 = 0.1 | 465.86 ± 0.76
350 K, 5419 kPa, x1 = 0.5422 | 423.85 ± 0.7
350 K, 6023 kPa, x1 = 0.1 | 467.64 ± 0.76
350 K, 6042 kPa, x1 = 0.2 | 456.41 ± 0.75
350 K, 8048 kPa, x1 = 0.1 | 471.02 ± 0.77
350 K, 8070 kPa, x1 = 0.5422 | 430.68 ± 0.71
350 K, 8140 kPa, x1 = 0.2 | 460.55 ± 0.75
350 K, 9931 kPa, x1 = 0.2 | 465.36 ± 0.76
350 K, 10069 kPa, x1 = 0.1 | 476.07 ± 0.78
350 K, 10144 kPa, x1 = 0.2 | 466.02 ± 0.76
350 K, 12122 kPa, x1 = 0.1 | 482.98 ± 0.79
350 K, 12140 kPa, x1 = 0.2 | 472.93 ± 0.77
350 K, 13507 kPa, x1 = 0.5422 | 449.48 ± 0.74
350 K, 14143 kPa, x1 = 0.1 | 491.53 ± 0.8
350 K, 14157 kPa, x1 = 0.2 | 481.39 ± 0.79
350 K, 16162 kPa, x1 = 0.2 | 491.18 ± 0.8
350 K, 16179 kPa, x1 = 0.1 | 501.83 ± 0.82
350 K, 17867 kPa, x1 = 0.2 | 500.53 ± 0.81
350 K, 18210 kPa, x1 = 0.1 | 513.66 ± 0.83
350 K, 19448 kPa, x1 = 0.2 | 509.95 ± 0.83
350 K, 19809 kPa, x1 = 0.1 | 523.96 ± 0.85
400 K, 199.4 kPa, x1 = 0.1 | 494.39 ± 0.8
400 K, 231.4 kPa, x1 = 0.2 | 480.07 ± 0.78
400 K, 497.1 kPa, x1 = 0.1 | 494.48 ± 0.8
400 K, 501.8 kPa, x1 = 0.2 | 480.26 ± 0.78
400 K, 622 kPa, x1 = 0.5422 | 442.06 ± 0.72
400 K, 918.4 kPa, x1 = 0.5422 | 442.56 ± 0.72
400 K, 995.6 kPa, x1 = 0.1 | 494.7 ± 0.81
400 K, 1551 kPa, x1 = 0.5422 | 443.69 ± 0.73
400 K, 1990 kPa, x1 = 0.1 | 495.31 ± 0.81
400 K, 2005 kPa, x1 = 0.2 | 481.61 ± 0.78
400 K, 2989 kPa, x1 = 0.1 | 496.16 ± 0.81
400 K, 3075 kPa, x1 = 0.5422 | 446.66 ± 0.73
400 K, 3994 kPa, x1 = 0.1 | 497.25 ± 0.81
400 K, 4015 kPa, x1 = 0.2 | 484.18 ± 0.79
400 K, 6011 kPa, x1 = 0.1 | 500.22 ± 0.81
400 K, 6027 kPa, x1 = 0.2 | 487.68 ± 0.79
400 K, 6170 kPa, x1 = 0.5422 | 453.88 ± 0.74
400 K, 8012 kPa, x1 = 0.1 | 504.2 ± 0.82
400 K, 8046 kPa, x1 = 0.2 | 492.14 ± 0.8
400 K, 9240 kPa, x1 = 0.5422 | 462.55 ± 0.76
400 K, 10023 kPa, x1 = 0.1 | 509.28 ± 0.83
400 K, 10077 kPa, x1 = 0.2 | 497.61 ± 0.81
400 K, 12004 kPa, x1 = 0.2 | 503.66 ± 0.82
400 K, 12054 kPa, x1 = 0.1 | 515.5 ± 0.84
400 K, 14084 kPa, x1 = 0.1 | 522.78 ± 0.85
400 K, 14562 kPa, x1 = 0.2 | 513.02 ± 0.83
400 K, 15633 kPa, x1 = 0.5422 | 484.69 ± 0.79
400 K, 16027 kPa, x1 = 0.2 | 519 ± 0.84
400 K, 16081 kPa, x1 = 0.1 | 530.96 ± 0.86
400 K, 16082 kPa, x1 = 0.1 | 530.96 ± 0.86
400 K, 18039 kPa, x1 = 0.2 | 527.93 ± 0.86
400 K, 18052 kPa, x1 = 0.1 | 539.93 ± 0.88
400 K, 19788 kPa, x1 = 0.1 | 548.54 ± 0.89
400 K, 20114 kPa, x1 = 0.2 | 537.94 ± 0.87
